IC50 data for 87 molecules are collected here from the COVID Moonshot data (paper PMC7615835).

Values joined by “and” are separate entries in the source; they are usually repeats but may differ in a detail not shown here. Equal values may be shown once.

This experiment has as its target SARS-CoV-2 Main Protease (SARS-CoV-2) (UniProt P0DTD1).
A word on the IC50: it is the concentration at which inhibition is half-maximal. Low readings indicate higher potency, high ones lower potency. `CC(C)(C)c1ccc(N(C(=O)CCC#N)C(C(=O)NCCc2cccc(F)c2)c2cccnc2)cc1` (configuration not stated) displayed an IC50 of 3.8 µM.

Molecule `CC1(C)Nc2ccccc2C1NC(=O)Cc1cccc(Cl)c1` (configuration not stated) yielded an IC50 greater than 99.5 µM.

On to `CC(C)(C)c1ccc(N(C(=O)c2nccs2)C(C(=O)NCCc2cccc(F)c2)c2cccnc2)cc1` (configuration not stated), for which the IC50 was determined as 0.8 µM.

Turning to `CC1(CS(=O)(=O)N2Cc3ccc(Cl)cc3C(C(=O)Nc3cncc4cccc(Cl)c34)C2)CS(=O)(=O)C1` (configuration not stated), the IC50 was 0.957 µM. The IC50 values of the last two molecules are within 1.5-fold of each other.

In the case of `COc1ccc(C(Cc2ccsc2)C(=O)Nc2n[nH]c3ccccc23)cc1` (configuration not stated), the IC50 was greater than 99.5 µM.

`O=C(NCCc1cccc(F)c1)C(c1cccnc1)N(C(=O)c1ccco1)C1CCCC(c2ccc(F)c(F)c2)C1` (configuration not stated) registered an IC50 greater than 99.5 µM.

On to `N#CC1(CS(=O)(=O)N2Cc3ccc(Cl)cc3C(C(=O)Nc3cncc4c[nH]nc34)C2)CC1` (configuration not stated), for which the IC50 worked out at 1.05 µM.

Consider `CC(C)Oc1ccc(N(C(=O)c2cnc[nH]2)C(C(=O)NCCc2cccc(F)c2)c2cccnc2)cc1` (configuration not stated), for which the half-inhibitory concentration (IC50) was 0.857 µM and 0.592 µM.

In turn, `NS(=O)(=O)C1Cc2ccccc2N(CCNS(=O)(=O)c2ccccc2)C1` (configuration not stated) showed an IC50 greater than 99.5 µM.

`Cn1cc(CN(C(=O)Cn2nnc3ccccc32)c2ccc(N3CCCCC3)cc2)cn1` returned a concentration for half-maximal inhibition (IC50) greater than 99.5 µM.

With `N#Cc1cnn(C(=O)c2cccs2)c1C1CC1`, the IC50 was found to be 3.24 µM.

For the molecule `CCOC(=O)/C=C/N1CCN(S(=O)(=O)c2ccccc2)CC1`, the IC50 came to 30 µM.

`O=C1CCCCN1c1ccc(N(Cc2ccccc2)C(=O)Cc2[nH]nc3ccccc23)cc1` gave an IC50 of 39.4 µM.

`O=C(Cc1cc(Cl)cc(Nc2nc(Cl)nc3nc[nH]c23)c1)Nc1cncc2ccccc12` yielded an IC50 of 2.37 µM.

The molecule `O=C(Cc1cccc(Cl)c1)Nc1cncc2c1CCCN2` displayed a 50% inhibitory concentration (IC50) of 7.27 µM.

The molecule `Cc1ccncc1NC(=O)Cc1cc(Cl)cc(-c2ccc(C)c(F)c2F)c1` displayed an IC50 of 31.9 µM.

For the molecule `O=C(CCl)N1CCN(Cc2cccs2)CC1`, the IC50 was 5.66 µM and 6.77 µM.

As for `CN(c1ccc2c(NC(=O)Cc3cccc(Cl)c3)cncc2c1)S(C)(=O)=O`, the IC50 came out at 2.7 µM.

In turn, `CC(C)Sc1ccccc1Nc1cc(Cl)cc(CC(=O)Nc2cncc3ccccc23)c1` displayed an IC50 of 2.01 µM. The IC50 values of the last two molecules are within 1.5-fold of each other.

In the case of `CC(C)(C)c1ccc(N(C(=O)c2cnc(C(C)(C)CF)o2)C(C(=O)NCCc2cccc(F)c2)c2cccnc2)cc1` (configuration not stated), the IC50 is greater than 99.5 µM.

Turning to `O=C(CC1(C(=O)Nc2cncc3ccccc23)CCOc2ccc(Cl)cc21)N1CCC2CS(=O)(=O)CC2C1` (configuration not stated), the IC50 was 1.67 µM.

As for `O=C(Cc1cc(Cl)cc(N2CCn3c(nnc3C(F)(F)F)C2)c1)Nc1cncc2ccccc12`, the IC50 came to 2.01 µM.

In the case of `O=C(Cc1cc(Cl)cc(Nc2cnc(Br)c(Cl)n2)c1)Nc1cncc2ccccc12`, the IC50 amounted to 1.94 µM.

`Cc1c(Nc2cc(Cl)cc(CC(=O)Nc3cncc4ccccc34)c2)c(=O)n(-c2ccccc2)n1C` registered an IC50 of 3.41 µM.

With `COc1cc(C)ccc1N(C(=O)c1ccco1)C(C(=O)NCCc1cccc(F)c1)c1cccnc1` (configuration not stated), the IC50 was greater than 99.5 µM.

As to `CC(C)(C)c1ccc(N(C(=O)c2ccnc(N3CCOCC3)n2)C(C(=O)NCCc2cccc(F)c2)c2cccnc2)cc1` (configuration not stated), the IC50 was greater than 99.5 µM.

In turn, `O=C(Cn1nnc2ccccc21)N(Cc1cccc(Cl)c1)c1ccc(N2CCOCC2)cc1` registered an IC50 of 3.7 µM.

The molecule `CC1(C(=O)Nc2cncc3ccccc23)CN(S(=O)(=O)CC2(C#N)CC2)Cc2ccc(Cl)cc21` (configuration not stated) returned an IC50 of 0.096 µM.

Molecule `O=C(CCl)N1CCCN(S(=O)(=O)Cc2ccccc2)CC1` yielded an IC50 of 8.81 µM.

The molecule `O=C(NCCOc1ccccc1)c1cc(=O)[nH]c2ccccc12` displayed an IC50 greater than 99.5 µM.

`O=C(Nc1cccnc1)N1CCC(CN2CCc3ccccc32)CC1` displayed an IC50 greater than 99.5 µM.

`O=C(Cc1cc(Cl)cc(NCc2ccc(Oc3ccccc3)cc2)c1)Nc1cncc2ccccc12`: the IC50 is 5.82 µM.

`COc1ccc(N(C(=O)c2ccco2)C(C(=O)NCCc2cccc(F)c2)c2cccnc2)cc1OCCO` (configuration not stated): the IC50 is greater than 99.5 µM.

In the case of `CC(C(=O)OC1CCCN(Cc2cccc(C(F)(F)F)c2)C1=O)n1cnc(C#N)n1` (configuration not stated), the IC50 is 8.45 µM and 10.2 µM.

`CNc1cncc(NC(=O)C2CCOc3ccc(Cl)cc32)c1C` (configuration not stated) returned an IC50 of 32.3 µM.

With `CNC(=O)CN1CC(C)(C(=O)Nc2cncc3ccccc23)c2cc(Cl)ccc2C1=O` (configuration not stated), the IC50 is 0.128 µM and 0.214 µM.

Molecule `O=C(Cc1cc(Cl)cc(Nc2nc3c(Cl)cccc3s2)c1)Nc1cncc2ccccc12` had an IC50 of 2.11 µM. In other words, the single-digit micromolar range.

As to `O=C(Cc1cccc(Cl)c1)N1CC(O)Cc2ccccc21` (configuration not stated), the IC50 is greater than 99.5 µM.

Turning to `O=C(CC1(C(=O)Nc2cncc3ccccc23)CCOc2ccc(Cl)cc21)N1CCOCC1CC(F)F` (configuration not stated), the IC50 was 7.68 µM and 12.6 µM.

Turning to `Cc1ccncc1NC(=O)Cc1cccc(Br)c1`, the IC50 was 20.6 µM.

`CCS(=O)(=O)c1ccc(CNS(=O)(=O)c2cnc(-c3ccccc3)s2)s1` registered an IC50 greater than 99.5 µM.

In turn, `O=C(Cc1cc(Cl)cc(Nc2cc(Cl)c(O)c(Cl)c2)c1)Nc1cncc2ccccc12` registered an IC50 of 6.9 µM. In other words, the single-digit micromolar range.

The molecule `O=C(Nc1cnc2ccccn12)C1CCNc2cc(Cl)c(Cl)cc21` (configuration not stated) came in with an IC50 of 1.98 µM.

Consider `COc1cccc(CN2CCN(C(=O)c3cc(=O)[nH]c4ccccc34)CC2)c1`, for which the IC50 was 27.3 µM.

The molecule `O=C(NCCc1cccc(F)c1)C(c1cccnc1)N(C(=O)c1cnc[nH]1)c1cccc(C2COC2)c1` (configuration not stated) showed an IC50 greater than 99 µM.

`O=C(Cc1cc(Cl)cc(Nc2ncc(Br)c(C(F)(F)F)n2)c1)Nc1cncc2ccccc12` gave an IC50 of 1.84 µM.

As for `C=CC(=O)N(c1cc(C(C)(C)C)on1)C(C(=O)Nc1cccc(CC)c1)c1cccnc1` (configuration not stated), the IC50 is greater than 99 µM.

In turn, `Nc1nn(C(=O)C2CCOc3ccc(Cl)cc32)c2ccncc12` (configuration not stated) showed an IC50 of 87.2 µM.

With `O=C(Cc1cc(Cl)cc(-n2c(C3CCNCC3)nc3ccccc32)c1)Nc1cncc2ccccc12`, the IC50 worked out at 2.24 µM.

Regarding `N#Cc1ccc(C(=O)N2C[C@@H](F)C[C@H]2CNC(=O)C2CCCC2O)[nH]1` (stereo in doubt), the IC50 is greater than 99.5 µM.

As for `O=C(Cc1cc(Cl)cc(Nc2cnc(Cl)c(Br)c2)c1)Nc1cncc2ccccc12`, the half-maximal inhibitory concentration (IC50) worked out at 3.08 µM.

Turning to `O=C(Cc1cc(Cl)cc(Nc2ccc(Br)c([N+](=O)[O-])c2)c1)Nc1cncc2ccccc12`, the IC50 is 2.06 µM.

In the case of `Cc1ccc(NCc2nnc3n(C)c(=O)c4ccccc4n23)cc1C`, the IC50 is greater than 99.5 µM.

`O=C(Nc1cncc2ccccc12)C(NC[C@@H]1CC[C@H](C(=O)N2CCCC2)O1)c1cccc(Cl)c1` (stereo in doubt) returned an IC50 of 2.77 µM.

`CN1C(=O)CCc2cc(N(C(=O)c3cocn3)C(C(=O)NCCc3cccc(F)c3)c3cccnc3)ccc21` (configuration not stated) registered an IC50 of 63.5 µM.

In turn, `O=C1CC(Oc2cc(Cl)cc(CC(=O)Nn3cnc4ccccc43)c2)N1` (configuration not stated) showed an IC50 of 82.1 µM.

With `C[C@@]1(C(=O)Nc2cncc3ccccc23)CCNc2cc(Cl)c(Cl)cc21` (stereo in doubt), the IC50 was 0.234 µM and 0.979 µM.

As to `O=C(Nc1cncc2ccccc12)C1CN(S(=O)(=O)N2CCOCC2)Cc2ccc(Cl)cc21` (configuration not stated), the IC50 came out at 0.138 µM.

Regarding `CC1(C(=O)Nc2cncc3ccccc23)CNC(=O)c2ccc(Cl)cc21` (configuration not stated), the IC50 worked out at 0.876 µM. Against the preceding molecule, the IC50 is about 6.3-fold higher.

As to `O=C(Cc1cc(Cl)cc(Nc2n[nH]c3ccc(Br)cc23)c1)Nc1cncc2ccccc12`, the IC50 was determined as 1.83 µM.

As for `Nc1nn(C(=O)Cc2cccc(Cl)c2)c2ccc(F)cc12`, the concentration for half-maximal inhibition (IC50) was greater than 99.5 µM.

On to `Cc1ccc(C(=O)Nc2c(-c3cnn(C)c3)nc3ccccn23)cn1`, for which the IC50 was greater than 99.5 µM.

`O=C(NCC(=O)N1CCCC1c1nc2ccccc2[nH]1)C1CCCC1` (configuration not stated) showed an IC50 greater than 99.5 µM.

On to `COc1ccc(N(Cc2cccc(Cl)c2)C(=O)Cn2nnc3ccccc32)cc1`, for which the IC50 worked out at 1.14 µM.

`C[C@@H](C(=O)Nc1cncnc1)c1ccccc1` (stereo in doubt) showed an IC50 greater than 99.5 µM.

The molecule `O=C(Cc1cc(Cl)cc(Nc2ccc(F)c(Br)c2)c1)Nc1cncc2ccccc12` registered an IC50 of 1.97 µM.

In turn, `CNC(=O)CN1CC2(CC(=O)N(c3cncc4ccccc34)C2=O)c2cc(Cl)ccc2C1=O` (configuration not stated) returned an IC50 of 0.26 µM.

Molecule `N#Cc1c(Cl)cccc1Nc1cc(Cl)cc(CC(=O)Nc2cncc3ccccc23)c1` gave an IC50 of 1.93 µM. Compared with the last molecule, the IC50 is about 7.4-fold higher.

As to `CS(=O)(=O)c1ccc(N(C(=O)c2cocn2)C(C(=O)NCCc2cccc(F)c2)c2cccnc2)cc1` (configuration not stated), the IC50 worked out at 75.9 µM.

In the case of `O=C(Cc1cc(Cl)cc(N2CCN(c3ccc(O)cc3)CC2)c1)Nc1cncc2ccccc12`, the IC50 stood at 2.19 µM.

`CCc1ccc2c(c1)C(=O)C(=O)N2CC(=O)O` yielded an IC50 greater than 99.5 µM.

The molecule `CC(=O)N(c1ccc(N)cc1)c1cc(Cl)cc(CC(=O)Nc2cncc3ccccc23)c1` came in with an IC50 of 2.32 µM. This counts as single-digit micromolar.

For `COc1ccccc1CC(=O)Nc1cncc2ccccc12`, the IC50 was found to be 35 µM. This IC50 lies about 15-fold higher than the previous one.

`O=C(Nc1cncc2ccccc12)C1CN(C2CCNC2=O)C(=O)c2ccc(Cl)cc21` (configuration not stated) showed an IC50 of 0.717 µM.

With `NC(=O)c1ccc(Cl)c(Nc2cc(Cl)cc(CC(=O)Nc3cncc4ccccc34)c2)c1`, the IC50 is 1.79 µM.

`O=C(Cc1cc(Cl)cc(N2CC=C(c3ccccc3)CC2)c1)Nc1cncc2ccccc12` gave an IC50 of 1.66 µM.

The molecule `CCOc1ccc(CNc2cc(Cl)cc(CC(=O)Nc3cncc4ccccc34)c2)cc1` returned an IC50 of 3.41 µM.

`O=C(CN1CC(C(=O)Nc2cncc3ccccc23)c2cc(Cl)ccc2C1=O)NCC(F)(F)F` (configuration not stated) displayed an IC50 of 0.34 µM.

In turn, `CN1CCCN(c2ccc(N(C(=O)c3cocn3)C(C(=O)NCCc3cccc(F)c3)c3cccnc3)cc2)C1=O` (configuration not stated) gave an IC50 of 61 µM.

The molecule `CC1CN(C(=O)c2cc(=O)[nH]c3ccccc23)CCN1c1cccc(Cl)c1` (configuration not stated) registered an IC50 of 14.7 µM.

Take `Cn1ncc2cc(C(=O)NNc3nc4cccnc4s3)cnc21`: the IC50 is greater than 99.5 µM.

For `COC(=O)c1cc(/C=c2\s/c(=C(/C#N)C(=O)NC(C)C)n(-c3ccc(OC)c(F)c3)c2=O)oc1C`, the IC50 is greater than 99.5 µM.

As to `O=C(Cc1cc(Cl)cc(Nc2ccc(Br)cc2O)c1)Nc1cncc2ccccc12`, the IC50 was found to be 3.89 µM. In other words, the single-digit micromolar range.

With `NS(=O)(=O)c1n[nH]cc1C(=O)NC[C@@]1(C(=O)Nc2cncc3ccccc23)CCOc2ccc(Cl)cc21` (stereo in doubt), the IC50 was found to be 1.99 µM.

In turn, `CC(C)(C)c1csc(Nc2cc(Cl)cc(CC(=O)Nc3cncc4ccccc34)c2)n1` had an IC50 of 2.09 µM.

`Cc1cn2nc(NCc3ccc4ncccc4c3)sc2n1` gave an IC50 greater than 99.5 µM.

In turn, `O=C(Cc1cc(Cl)cc(Nc2ccc(OCc3ccccn3)c(Cl)c2)c1)Nc1cncc2ccccc12` gave an IC50 of 2.09 µM.
